According to patent US9657059B2, “Immune system modulators” (Canimguide Therapeutics AB, priority 2013, dated 2017):

Experiments:
immune cells = assay: Binding of albumin fragments to immune cells on the Artificial Cell Surface column (ACS), MALDI-TOF; parameters: species or system human
Experimental: The existence of albumin sequences having neo-structures that bind to immune cells was identified using a human ex vivo model based on affinity chromatography over an “Artificial Cell Surface Column” (ACS). The effect of different albumin fragments on IL-2 induced proliferation of human immune cells (PBMCs) was analyzed in the ACS system (see Example 9). Briefly, PBMCs were cultured for seven days in the presence of IL-2 and the various synthetically prepared albumin fragments. Proliferation was measured as incorporation of ^3H thymidine during the final 18 hours.
Some of these fragments can have immunomodulatory activity similar to P3028, can bind to immune cells similar to P3028, and/or can bind to immunomodulatory antibodies that recognized P3028. […] Table 1 provides a listing of trypsin-generated fragments of albumin, which bind to immune cells in the ACS system, as detected by MALDI-TOF analysis.
[…] Again, the immune cell binding peptides were identified by comparing adsorbed and unadsorbed peptide solutions using the MALDI TOF technique.

[1] = test system: Artificial Cell Surface (ACS): biotinylated cell surface proteins of PBMCs; assay: Adsorption of enzyme-fragmented dHSA peptides by artificial cell surface (ACS) column, MALDI-TOF; type: binding, human
Experimental: An artificial cell surface (ACS) was prepared by selectively biotinylating cell surface structures of PBMCs and after lysing the cells binding the biotinylated proteins to streptavidin columns (see Example 17 for further description of the ACS). The mixture of peptides obtained after trypsination was adsorbed by ACS and the binding peptides were identified by comparing adsorbed and unabsorbed peptide solutions using the MALDI TOF ms technique. Based on their degree of binding and their spatial relation to previously identified immunoregulatory structures, four new peptides were selected to be synthesized and investigated for their immunoregulatory activity, primarily the effect on the proliferative response to IL-2.
First, biotinylated cell surface proteins were prepared. Buffy coats generated from 450 ml blood each were collected from 4 healthy donors. Erythrocytes were removed by sedimentation on 2% dextran T500 solution (Amersham Pharmacia Biotech AB, Uppsala Sweden) in 0.9% NaCl. Mononuclear cells (PBMC) were then isolated by Ficoll-Paque Plus (GE Healthcare BioscienceAB Sweden) density gradient centrifugation. The PBMCs were then suspended in phosphate buffered saline (PBS) containing Ca and Mg (GIBCO) at a concentration of 10×10^6/ml. EZ Link Sulfo-NHS-biotin (Pierce USA) was added at a final concentration of 0.2 mg/ml and the mixture incubated on a shaker at room temperature for 10 min. Excess biotin was then removed by washing the PBMC in PBS. Biotinylated PBMC were then lysed by adding 1.0 ml ice-cold lysing buffer (50 mM Tris-HCL, pH 7.5, with 0.15 MNaCl, 5 mM MgCl2 containing 100 mM Octyl glucoside and 1 mM Phenylmethylsulfonyl fluoride) per 2×10^7 pelleted cells with gentle shaking, then incubated for 30 min. on ice. Debris was removed by centrifugation at 5000×g at 4° C. for 10 min and the supernatants were collected and pooled from all four donors. The lysate was then stored at −70° C. in polypropylene plastic tubes.
This amount of lysate corresponds to 36×10^7 mononuclear cells. It was added to a 1 ml Hitrap Streptavidin HP affinity column (Amersham Biosciences). To block possible remaining free biotin, 5 ml of 0.1 M glycine (Sigma) was added to the column. Unsaturated streptavidin on the column was then reacted with 150 ug biotin (Sigma) in binding buffer. The column was carefully washed with PBS and stored in PBS with 0.1% NaN3 at 4° C. until use.
27 ml biotinylated cell lysate in binding buffer (corresponding to 54×10^7 mononuclear cells) was added to 1.5 ml washed Streptavidin Sepharose HP (Amersham Biosciences). To block possible remaining free biotin, 25 ml of 0.1 M glycine (Sigma) was added to the Streptavidin Sepharose. Unsaturated streptavidin was then reacted with 225 ug biotin (Sigma) in binding buffer. The Streptavidin Sepharose was carefully washed in PBS. One ml of the biotinylated cell lysate coupled Streptavidin Sepharose was then packed in an empty column (Tricorn Empty High Performance Column, Amersham Bioscience) and washed with phosphate buffered saline (PBS) containing Ca^2+ and Mg^2+ (GIBCO).
Digestion with trypsin or ASP-N was performed as follows. Freeze dried dHSA (0.5 mg) was reconstituted in 25 mM NH4HCO3, pH 8, containing […] sequencing grade modified trypsin (Promega Corporation, WI) or […] Endoproteinase ASP-N(Sigma) and incubated at 37° C. overnight. To remove unfragmented albumin and enzyme, the sample was ultra filtered through an Amicon Ultra 4 (mw cut-off of 5000) or a Centriplus (mw cut-off 10000) centrifugal filter (Millipore AB, Solna, Sweden). The filtrate, containing fragmented dHSA without enzymes, was collected and diluted with PBS with Ca and Mg (GIBCO).
dHSA was trypsinated, and the mixture of peptides obtained after trypsination was adsorbed by ACS. Two ml of enzyme-fragmented dHSA in PBS, corresponding to a total of 0.2 mg protein, was passaged over the ACS column. […]

[2] = Asp-N-generated fragments of denatured human serum albumin, MALDI TOF
[3] = Asp-N-generated albumin fragments
[4] = trypsin-generated albumin fragments, MALDI-TOF
[5] = trypsin-generated albumin fragments

| Substance | Percent Absorbed (immune cells; [2]) [%] | Percent Absorbed [1, 3] [%] | Percent Absorbed (immune cells; [4]) [%] | Percent Absorbed [1, 5] [%] |
| --- | --- | --- | --- | --- |
| 218 (DDKETCFAEEGKKLVAASQAALGL; listed as Homo sapiens) [compound 218] | 100 | 100 |  |  |
| 204 (CCAAADPHECYAK; listed as Homo sapiens) [compound 204] |  |  | 32 | 32 |
| 217 (DHVKLVNEVTEFAKTCVA; listed as Homo sapiens) [compound 217] | 100 | 100 |  |  |
| 221 (DSISSKLKECCEKPLLEKSHCIAEVEN; listed as Homo sapiens) [compound 221] | 65 | 65 |  |  |
| 207 (QEPERNECFLQHK; listed as Homo sapiens) [compound 207] |  |  | 25 | 25 |
| 216 (DDNPNLPR; listed as Homo sapiens) [compound 216] |  |  | 1 | 1 |
| 194 (KYLYEIAR; listed as Homo sapiens) [compound 194] |  |  | 71 | 71 |
| 201 (LKECCEKPLLEK; listed as Homo sapiens) [compound 201] |  |  | 36 | 36 |
| 219 (DRVTKCCTESLVNRRPCFSALEV; listed as Homo sapiens) [compound 219] | 87 | 87 |  |  |
| 227 (VFLGMFLYEYARRHPDYSVVLLLRLAKTYETTLEKCCAAA; listed as Homo sapiens) [compound 227] | 100 | 100 |  |  |
| 222 (DKLCTVATLRETYGEM; listed as Homo sapiens) [compound 222] | 65 | 65 |  |  |
| 206 (CCTESLVNR; listed as Homo sapiens) [compound 206] |  |  | 26 | 26 |
| 226 (LAKYICENQDSISSKLKECCEKPLLEKHCIAEVEN; listed as Homo sapiens) [compound 226] | 100 | 100 |  |  |
| 202 (LCTVATLR; listed as Homo sapiens) [compound 202] |  |  | 35 | 35 |
| 214 (YICENQDSISSK; listed as Homo sapiens) [compound 214] |  |  | 3 | 3 |
| 196 (VFDEFKPLVEEPQNLIK; listed as Homo sapiens) [compound 196] |  |  | 60 | 60 |
| 199 (FQNALLVR; listed as Homo sapiens) [compound 199] |  |  | 41 | 41 |
| 210 (QNCELFEQLGEYK; listed as Homo sapiens) [compound 210] |  |  | 20 | 20 |
| 215 (LDELRDEGK; listed as Homo sapiens) [compound 215] |  |  | 2 | 2 |

| Substance | Percent Absorbed (immune cells; [2]) [%] | Percent Absorbed [1, 3] [%] | Percent Absorbed (immune cells; [4]) [%] | Percent Absorbed [1, 5] [%] |
| --- | --- | --- | --- | --- |
| 228 (LGEENFKALVLIAFAQYLQQCPFEDHVKLVNEVTEFAKTCVA; listed as Homo sapiens) [compound 228] | 100 | 100 |  |  |
| 200 (SLHTLFGDK; listed as Homo sapiens) [compound 200] |  |  | 36 | 36 |
| 208 (AVMDDFAAFVEK; listed as Homo sapiens) [compound 208] |  |  | 23 | 23 |
| 225 (ICTLSEKERQIKKQTALVELVKHKPKATKEQLKAVM; listed as Homo sapiens) [compound 225] | 100 | 100 |  |  |
| 209 (NECFLQHK; listed as Homo sapiens) [compound 209] |  |  | 22 | 77 |
| 203 (YLYEIAR; listed as Homo sapiens) [compound 203] |  |  | 34 | 34 |
| 197 (VPQVSTPTLVEVSR; listed as Homo sapiens) [compound 197] |  |  | 59 | 59 |
| 223 (YSVVLLLRLAKTYETTLEKCCAAADPHECYAKVF; listed as Homo sapiens) [compound 223] | 100 | 100 |  |  |
| 198 (RPCFSALEVDETYVPK; listed as Homo sapiens) [compound 198] |  |  | 42 | 42 |
| 229 (RVTKCCTESLVNRRPCFSALEVDETYVPKEFNAETFTFHA; listed as Homo sapiens) [compound 229] | 100 | 100 |  |  |
| 230 (YLSVVLNQLCVLHEKTPVSDRVTKCCCTESLVNRRPFSALEV; listed as Homo sapiens) [compound 230] | 37 | 37 |  |  |
| 211 (QEPERNECFLQHK; listed as Homo sapiens) [compound 211] |  |  | 18 | 18 |
| 195 (KVPQVSTPTLVEVSR; listed as Homo sapiens) [compound 195] |  |  | 64 | 64 |
| 224 (KLCTVATLRETYGEMADCCAKQEPERNECFLQHK; listed as Homo sapiens) [compound 224] | 100 | 100 |  |  |
| 212 (VHTECCHGDLLECADDR; listed as Homo sapiens) [compound 212] |  |  | 13 | 13 |
| 213 (FKDLGEENFK; listed as Homo sapiens) [compound 213] |  |  | 8 | 8 |
| 205 (AAFTECCQAADK; listed as Homo sapiens) [compound 205] |  |  | 29 | 29 |
| 220 (DETYVPKEFNAETFTHA; listed as Homo sapiens) [compound 220] | 86 | 86 |  |  |
